Results reported in US20250000989A1, “PYRROLO BENZODIAZEPINE DERIVATIVE, AND CONJUGATE, PREPARATION METHOD AND USE THEREOF” (priority 2021, published 2025).
pIC50: −log10 of the molar value.

Assays:
Experiment in all cases: Inhibition of in vitro proliferation of tumor cells by PBD compounds (CTG)
Format in all cases: cell-based
[1] = system: SK-BR-3 tumor cells (human breast cancer cells); settings: 144 h, 6 days of culture
Protocol: (§1) The objective of this assay is to measure the activity of the compounds of the present disclosure in inhibiting the proliferation of different tumor cell lines: SK-BR-3 tumor cells (human breast cancer cells, ATCC, Cat. No. HTB-30), NCI-H23 (human non-small cell lung cancer cells, Nanjing Cobioer, Cat. No. CBP60132), and MKN45 (human gastric cancer cells, Nanjing Cobioer, Cat. No. CBP60488). The cells were treated in vitro with different concentrations of the compounds. After 6 days of culture, the proliferation of the cells was measured using CTG (CellTiter-Glo® Luminescent Cell Viability Assay, Promega, Cat. No. G7573) reagent, and the in vitro activity of the compounds was evaluated based on their IC50 values.
(§2) • 1. Cell culture: SK-BR-3, NCI-H23, and MKN45 cells were separately cultured in McCoy's 5A medium (ThermoFisher, Cat. No. 16600108) and RPMI 1640 medium (ThermoFisher, Cat. No. 11875119) containing 10% FBS (Gibco, 10099-141). • 2. Cell plating: After being digested with trypsin (0.25% Trypsin-EDTA (1×), Life Technologies, Cat. No. 25200-072), the SK-BR-3, NCI-H23, and MKN45 were resuspended in their respective media and counted. The density was adjusted to 1.48×10^4 cells/mL, and the cells were plated onto 96-well plates (corning, Cat. No. 3903) at 135 μL/well, i.e., 2000 cells/well, and cultured at 37° C. for 24 h. • 3. Drug formulation: PBD drugs were formulated in round-bottom 96-well plates. Plate 1: In the first column, the concentration was 0.05 mM; in the second column through the fourth column, a 3-fold serial dilution was performed in DMSO; in the fifth column through the sixth column, a 5-fold serial dilution was performed in DMSO; in the seventh column through the ninth column, a 10-fold serial dilution was performed in DMSO; and the tenth column contained DMSO. Plate 2: Corresponding media were added to the first column through the tenth column at 196 μL/well; 4 μL of solution was transferred from each well of the first column through the tenth column of plate 1 to plate 2 and well mixed with the medium; 15 μL of the mixture was added to the cells plated the day before, and the cells were cultured at 37° C. for another 6 days. • 4. CTG assay: The cell culture plates were taken out and equilibrated to room temperature. CTG was added at 75 μL/well, and the plates were incubated at room temperature in the dark for 10 min. Then luminescence values were measured on a microplate reader (BMG labtech, PHERAstar FS).

[2] = system: MKN45 (human gastric cancer cells); settings: MKN-45, 144 h, 6 days of culture
Protocol: as §1, §2

[3] = system: NCI-H23 (human non-small cell lung cancer cells); settings: 144 h, 6 days of culture
Protocol: as §1, §2

Structure (SMILES) | pIC50 [1] | pIC50 [2] | pIC50 [3]
COc1cc2c(cc1OCCCCCOc1cc3c(cc1OC)C(=O)N1C=C(c4ccc(N5CCN(C)CC5)cc4)C[C@H]1CN3)N=C[C@@H]1CC3(CC3)CN1C2=O [2-1, (S)-7-Methoxy-8-((5-(((S)-7-methoxy-2-(4-(4-methylpiperazin-1-yl)phenyl)-5-oxo-5,10,11,11a-tetrahydro-1H-benzo[e]pyrrolo[1,2-a][1,4]diazepin-8-yl)oxy)pentyl)oxy)-1,11a-dihydro-3H,5H-spiro[benzo[e]pyrrolo[1,2-a][1,4]diazepine-2,1′-cyclopropan]-5-one] | 10.15 | 10.70 | 10.70
COc1cc2c(cc1OCCCCCOc1cc3c(cc1OC)C(=O)N1C=C(c4ccc(N5CCOCC5)cc4)C[C@H]1CN3)N=C[C@@H]1CC3(CC3)CN1C2=O [2-2, (S)-7-Methoxy-8-((5-(((S)-7-methoxy-2-(4-morpholinylphenyl)-5-oxo-5,10,11,11a-tetrahydro-1H-benzo[e]pyrrolo[1,2-a][1,4]diazepin-8-yl)oxy)pentyl)oxy)-1,11a-dihydro-3H,5H-spiro[benzo[e]pyrrolo[1,2-a][1,4]diazepine-2,1′-cyclopropan]-5-one] | 10.30 | 10.05 | 10.70
COc1cc2c(cc1OCCCCCOc1cc3c(cc1OC)C(=O)N1C=C(c4ccc(SC5CC5)cc4)C[C@H]1CN3)N=C[C@@H]1CC3(CC3)CN1C2=O [2-3] | 9.70 | 9.31 | 10.30
COc1cc2c(cc1OCCCCCOc1cc3c(cc1OC)C(=O)N1C=C(c4ccc(-n5cccn5)cc4)C[C@H]1CN3)N=C[C@@H]1CC3(CC3)CN1C2=O [2-4, (S)-8-((5-(((S)-2-(4-(1H-Pyrazol-1-yl)phenyl)-7-methoxy-5-oxo-5,10,11,11a-tetrahydro-1H-benzo[e]pyrrolo[1,2-a][1,4]diazepin-8-yl)oxy)pentyl)oxy)-7-methoxy-1,11a-dihydro-3H,5H-spiro[benzo[e]pyrrolo[1,2-a][1,4]diazepine-2,1′-cyclopropan]-5-one] | 9.15 | 8.84 | 9.47
COc1cc2c(cc1OCCCCCOc1cc3c(cc1OC)C(=O)N1C=C(c4ccc(C5CCOCC5)cc4)C[C@H]1CN3)N=C[C@@H]1CC3(CC3)CN1C2=O [2-5, (S)-7-Methoxy-8-((5-(((S)-7-methoxy-5-oxo-2-(4-(tetrahydro-2H-pyran-4-yl)phenyl)-5,10,11,11a-tetrahydro-1H-benzo[e]pyrrolo[1,2-a][1,4]diazepin-8-yl)oxy)pentyl)oxy)-1,11a-dihydro-3H,5H-spiro[benzo[e]pyrrolo[1,2-a][1,4]diazepine-2,1′-cyclopropan]-5-one] | 8.74 | 9.04 | 9.39
COc1cc2c(cc1OCCCCCOc1cc3c(cc1OC)C(=O)N1C=C(c4ccc(C5CCN(C)CC5)cc4)C[C@H]1CN3)N=C[C@@H]1CC3(CC3)CN1C2=O [2-6, (S)-7-Methoxy-8-((5-(((S)-7-methoxy-2-(4-(1-methylpiperidin-4-yl)phenyl)-5-oxo-5,10,11,11a-tetrahydro-1H-benzo[e]pyrrolo[1,2-a][1,4]diazepin-8-yl)oxy)pentyl)oxy)-1,11a-dihydro-3H,5H-spiro[benzo[e]pyrrolo[1,2-a][1,4]diazepine-2,1′-cyclopropan]-5-one] | 9.62 | 10.22 | 10.52
COc1cc2c(cc1OCCCCCOc1cc3c(cc1OC)C(=O)N1C=C(c4ccc(-n5nccn5)cc4)C[C@H]1CN3)N=C[C@@H]1CC3(CC3)CN1C2=O [2-7, (S)-8-((5-(((S)-2-(4-(2H-1,2,3-Triazol-2-yl)phenyl)-7-methoxy-5-oxo-5,10,11,11a-tetrahydro-1H-benzo[e]pyrrolo[1,2-a][1,4]diazepin-8-yl)oxy)pentyl)oxy)-7-methoxy-1,11a-dihydro-3H,5H-spiro[benzo[e]pyrrolo[1,2-a][1,4]diazepine-2,1′-cyclopropan]-5-one] | 10.10 | 10.15 | 10.40
COc1cc2c(cc1OCCCCCOc1cc3c(cc1OC)C(=O)N1C=C(c4ccc(C5CCN(CCO)CC5)cc4)C[C@H]1CN3)N=C[C@@H]1CC3(CC3)CN1C2=O [2-9, (S)-8-((5-(((S)-2-(4-(1-(2-Hydroxyethyl)piperidin-4-yl)phenyl)-7-methoxy-5-oxo-5,10,11,11a-tetrahydro-1H-benzo[e]pyrrolo[1,2-a][1,4]diazepin-8-yl)oxy)pentyl)oxy)-7-methoxy-1,11a-dihydro-3H,5H-spiro[benzo[e]pyrrolo[1,2-a][1,4]diazepine-2,1′-cyclopropan]-5-one] | 8.90 | 9.72 | 9.64
COc1cc2c(cc1OCCCCCOc1cc3c(cc1OC)C(=O)N1C=C(c4ccc(C5CCN(C(=O)CO)CC5)cc4)C[C@H]1CN3)N=C[C@@H]1CC3(CC3)CN1C2=O [2-10, (S)-8-((5-(((S)-2-(4-(1-(2-Hydroxyacetyl)piperidin-4-yl)phenyl)-7-methoxy-5-oxo-5,10,11,11a-tetrahydro-1H-benzo[e]pyrrolo[1,2-a][1,4]diazepin-8-yl)oxy)pentyl)oxy)-7-methoxy-1,11a-dihydro-3H,5H-spiro[benzo[e]pyrrolo[1,2-a][1,4]diazepine-2,1′-cyclopropan]-5-one] | 9.20 | 9.21 | 9.70
COc1cc2c(cc1OCCCCCOc1cc3c(cc1OC)C(=O)N1C=C(c4ccc(C5CCN(C(C)=O)CC5)cc4)C[C@H]1CN3)N=C[C@@H]1CC3(CC3)CN1C2=O [2-11, (S)-8-((5-(((S)-2-(4-(1-Acetylpiperidin-4-yl)phenyl)-7-methoxy-5-oxo-5,10,11,11a-tetrahydro-1H-benzo[e]pyrrolo[1,2-a][1,4]diazepin-8-yl)oxy)pentyl)oxy)-7-methoxy-1,11a-dihydro-3H,5H-spiro[benzo[e]pyrrolo[1,2-a][1,4]diazepine-2,1′-cyclopropan]-5-one] | 9.49 | 9.16 | 9.96
COc1ccc(C2=CN3C(=O)c4cc(OC)c(OCC5(CCCOc6cc7c(cc6OC)C(=O)N6CC8(CC8)C[C@H]6C=N7)CC5)cc4NC[C@@H]3C2)cc1 [2-13, (S)-7-Methoxy-8-(3-(1-((((S)-7-methoxy-2-(4-methoxyphenyl)-5-oxo-5,10,11,11a-tetrahydro-1H-benzo[e]pyrrolo[1,2-a][1,4]diazepin-8-yl)oxy)methyl)cyclopropyl)propoxy)-1,11a-dihydro-3H,5H-spiro[benzo[e]pyrrolo[1,2-a][1,4]diazepine-2,1′-cyclopropan]-5-one] | 8.79 | 8.36 | 8.85
COc1ccc(C2=CN3C(=O)c4cc(OC)c(OCCCCCOc5cc6c(cc5OC5CC5)C(=O)N5CC7(CC7)C[C@H]5C=N6)cc4NC[C@@H]3C2)cc1 [2-16, (S)-7-Cyclopropoxy-8-((5-(((S)-7-methoxy-2-(4-methoxyphenyl)-5-oxo-5,10,11,11a-tetrahydro-1H-benzo[e]pyrrolo[1,2-a][1,4]diazepin-8-yl)oxy)pentyl)oxy)-1,11a-dihydro-3H,5H-spiro[benzo[e]pyrrolo[1,2-a][1,4]diazepine-2,1′-cyclopropan]-5-one] | 9.44 | 9.59 | 9.74
COc1ccc(C2=CN3C(=O)c4cc(OC)c(OCCCCCOc5cc6c(cc5OC)C(=O)N5[C@H](C=N6)C[C@@H]6C[C@@H]65)cc4NC[C@@H]3C2)cc1 [2-21, (1aS,9aS,10aS)-5-Methoxy-6-((5-(((S)-7-methoxy-2-(4-methoxyphenyl)-5-oxo-5,10,11,11a-tetrahydro-1H-benzo[e]pyrrolo[1,2-a][1,4]diazepin-8-yl)oxy)pentyl)oxy)-1a,9a,10,10a-tetrahydrobenzo[e]cyclopropa[4,5]pyrrolo[1,2-a][1,4]diazepin-3(1H)-one] | 9.55 | 9.24 | 9.92
COc1ccc(C2=CN3C(=O)c4cc(OC)c(OCCCCCOc5cc6c(cc5OC)C(=O)N5CC7(CC7)C[C@H]5C=N6)cc4NC(=O)[C@@H]3C2)cc1 [2-22, (S)-7-Methoxy-8-((5-(((S)-7-methoxy-5-oxo-5,11a-dihydro-1H,3H-spiro[benzo[e]pyrrolo[1,2-a][1,4]diazepine-2,1′-cyclopropan]-8-yl)oxy)pentyl)oxy)-2-(4-methoxyphenyl)-1,11a-dihydro-5H-benzo[e]pyrrolo[1,2-a][1,4]diazepine-5,11(10H)-dione] | 9.59 | 9.77 | 10.10
